Results published in patent publication US8003595B2, “Amino acid sequences facilitating penetration of a substance of interest into cells and/or cell nuclei” (Cellectis, priority 2000, dated 2011).
≈ marks a conversion by molar mass, not a printed value. Like-named read-outs stand apart in the source and are kept apart here. Marks after values point to notes of the source that are not given here. Where no end group is shown, it is not given here.

Experiments:
[1] = system: Enterococcus faecalis (ATCC 29212); assay: microbe, parasite or virus in culture; format: cell-based
Description: (§1) The gram-positive bacterial strains are: Enterococcus faecalis (ATCC 29212), and Staphylococcus aureus (ATCC 25923) and the gram-negative strains are: Escherichia coli (ATCC 25922), Pseudomonas aeruginosa (ATCC 27853) and Salmonella typhimurim (clinical isolate), Salmonella typhiTy2 (WHO). The bacteria are cultured with shaking all night at 37° C., then recultured at a dilution of 1:50 in some fresh Luria-Bertani (LB) medium for 2 hours. The bacterial concentration is adjusted to […], and 50 μl is distributed in 96-well plates with an equal volume of peptides diluted half and half (256-0.5 μg/ml) in LB medium. […] To determine the minimum bactericide concentration, 10 μl from each well is spread on gelose plates in LB medium.
(§2) The results are expressed as the peptide concentration in MBC (μM).

[2] = system: Escherichia coli (ATCC 25922); assay: microbe, parasite or virus in culture; format: cell-based
Description: as §1, §2

[3] = system: Pseudomonas aeruginosa (ATCC 27853); assay: microbe, parasite or virus in culture; format: cell-based
Description: as §1, §2

[4] = system: Staphylococcus aureus (ATCC 25923); assay: microbe, parasite or virus in culture; format: cell-based
Description: as §1, §2

[5] = system: Salmonella typhimurim (clinical isolate); assay: Antibacterial activity of cationic peptides (MBC); format: cell-based; settings: S. typhimurium
Description: as §1, §2

[6] = system: Salmonella typhiTy2 (WHO); assay: microbe, parasite or virus in culture; format: cell-based, S. typhi-Ty2
Description: as §1, §2

HT29 cells = assay: cells; format: cell-based; settings: Homo sapiens, HT-29, Table 26, read-out: % inhibition of the growth of HT29 cells
Excerpt: N-phthalimidoglutarimide (thalidomide) is a molecule that has a great variety of properties, such as a teratogenic effect, reduction of the production of TNF-α by the monocytes and suppression of angiogenesis. It has been shown that the teratogenic activity depends on the glutarimide residue, while the antiangiogenic effect depends on the phthaloyl group. We therefore prepared peptide SEQ ID NO: 46 derived from peptide SEQ ID NO: 26 (HBP3)2 and added glycyl phthaloyl in N-terminal. The technique used to test the activity of phthaloyl-HBP3 is the same as the one previously described for aspirin. The results of the inhibition of the growth (%) of HT29 cells shown in Table 27 are calculated as a percentage of the mean optical density in the wells of cells containing dilutions of the samples being tested and the mean optical density of the wells of cells that received only medium.

CHO cells = assay: In vitro transfection with luciferase plasmid using peptides; format: cell-based, Chinese hamster; settings: for luciferase expression RLU: 3 μg of plasmid PCMV-LUC and 3.3 nmoles of peptide
Description: The plasmid used is PCMV-LUC (6.4 kb) carrying the luciferase gene under the control of the promoter of the human cytomegalovirus.
The plasmid-peptide complexes are prepared by adding 3 μg of plasmid to 50 μl of NaCl, 0.15 M and 3.3 nmoles of SEQ ID NO: 22 and 23 for 15 minutes. The complexes are prepared in triplicate.
CHO cells are cultivated in the complete medium MEM Alpha containing 6% fetal calf serum and sown with 5×10^4 cells per well on a 24-well plate the evening before the experiment. The wells are then emptied of the medium, and the plasmid-peptide complex is added to them (3 μg of plasmid and 3.3 nmoles of peptide in 0.5 ml of complete medium for 5 hours at 37° C.). The medium is then replaced with the complete medium, and the culture is continued for 18-20 hours. The cells are then washed three times with PBS, then lysed with 100 μl of lysis buffer (Promega) containing 1% Triton X-100 and 2 mM DTT.
Then a 15 μl sample of the lysate is taken to measure the luciferase with the Promega luciferin kit and 15 other μl to calculate the quantity of proteins in the lysate using the Bradford Test. The relative luciferase units (RLU) are reported in mg of proteins.

3T3 cells = assay: as above; format: cell-based, mouse; settings: for RLU value relative to peptide SEQ ID NO: 41: 3T3 cells; for luciferase expression RLU: peptide and plasmid pCMVLUC complexed at 1.6 nmoles/μg
Description: Technique: The plasmid pCMVLUC (carrying the gene for luciferase) provided by Qiagen is used according to their instructions. 3T3 cells are sown the night before in 24-well plates (8×10^4 cells/well) in the complete culture medium.
The peptides and the plasmid are complexed in a ratio of 1.6 nmoles/μg in 50 μl of NaCl 0.15M for 20 minutes at laboratory temperature. The cells are then washed, and the peptide-plasmid complex added to the cells in 0.5 ml of complete medium. After 5 hours of incubation at 37° C., the reaction medium is eliminated, and 1 ml of complete medium is added to the cells. After 24 hours of culture, the cells are then washed 3 times with PBS and lysed with 100 μl of lysis buffer (Promega) containing 1% Triton X-100 and 2 mM DTT for 15 minutes. The luciferase test is done on the cell lysate after centrifugation. The quantity of protein in the lysate is measured using the Bradford Test (Bio-Rad) and calculated according to a curve established with bovine gamma globulins. The luciferase activity is estimated on 15 μl of lysate plus 100 μl of reagent of luciferase containing luciferin (Promega). The relative luciferase units (RLU) are measured in a luminometer (Berthold Systems) and reported in mg of protein.

cells = assay: Penetration of biotinylated peptides inside cells (microscopy, S-PO coloration); format: cell-based; settings: biotinylated peptides 50 to 6 μg/ml, 1-18 hours, revealed with S-PO
Description: The cells are cultivated in the presence of the different peptides carrying, on the N-terminal side, biotin in decreasing concentrations (50 to 6 μg/ml) in the culture medium for variable times (1-18 hours).
At the end of the culture, the cells are washed three times with PBS (0.15 M NaCl buffered with 0.01 M potassium phosphate buffer pH 7.4) then fixed 15 minutes in ethanol at −20° C. The penetration of the peptide is evaluated after incubation for 30 minutes with streptavidin conjugated with peroxidase (abbreviated S-PO for streptavidin-peroxidase). Then, the S-PO is eliminated, and the cells are washed. […] With the other peptides, positive colorations, but of variable intensity, were noted.

H1299 cells = assay: Internalization of biotinylated peptide/S-PO complexes; format: cell-based, human; settings: peptide: S-PO complexes of 4:1, peptide concentration of 1 μg
Description: A biotinylated/S-PO peptide or biotinylated/A-PO complex (A-PO for avidin-peroxidase) is prepared extemporaneously in two ways:
1) either in a peptide: S-PO or A-PO molar ratio of 4:1 (for example, 1.4 μg of peptide with a molecular weight of 3500 to 10 μg of S-PO; the weight of S-PO used varies depending on the peptides since their molecular weights are different).
2) or in a peptide: S-PO or A-PO molar ratio of 25:1 (for example 1.7 μg of peptide with a molecular weight of 3500 to 1 μg of S-PO).
The complexes are prepared by incubating the biotinylated peptide with S-PO or A-PO in PBS in a volume of 5 to 10 μl for 15 minutes at laboratory temperature. They are then diluted in 1 ml of complete culture medium, filtered on a 0.2 micron membrane and incubated with the cells for 4 hours. The cells are then washed three times with PBS.
To study the penetration of the complexes under a microscope, the cells are fixed as before for 15 minutes in ethanol at −20° C., they are washed with PBS, and the activity of the internalized peroxidase is shown by diaminobenzidine in the presence of H2O2. To measure the quantity of peptide/S-PO or A-PO complexes internalized, the cells are trypsinized, transferred into microtubes and counted. They are washed twice by centrifugation, then the residue is suspended in 200 μl of lysis buffer (Tris buffer, 0.1 M, pH8, 0.5% Nonidet). After 15 minutes, the peroxidase contained in the lysis buffer is dosed onto 96-well plates with ortho-dianisidine and H2O2 by comparison with a standard curve for S-PO. The reading is taken at 450 nm. The quantity contained in the different samples is expressed in picograms (pg) per 10^4 cells.
Table 7 below reports the results of evaluating the influence of SEQ ID NO: 1 on the penetration of peptides coupled to SEQ ID NO: 1 into H1299 cells, where
Concentration a: 25 peptides to one molecule of S-PO (1 μg),
Concentration b: 4 peptides to one molecule of S-PO (10 μg).

[7] = system: gram-positive and gram-negative bacterial strains; assay: Antibacterial activity of cationic peptides, summary over strains; format: cell-based; settings: summary of Table 29
Description: as §1
However, when peptide HPB13 (SEQ ID NO: 38) is coupled with peptide SEQ ID NO: 24, it enhances its activity by a factor of 50 to 100 (peptide SEQ ID NO: 45). […] None these peptides are active on gram-positive bacteria.

With `CC1(C)S[C@@H]2[C@H](NC(=O)[C@H](N)c3ccccc3)C(=O)N2[C@H]1C(=O)O` [Ampicillin, reference compound] the MBC ([1]; Enterococcus faecalis, ATCC29212, E. faecalis) was 2.75 µM (≈ 0.961 µg/mL), the MBC ([2]; Escherichia coli, ATCC25922, E. coli, read-out: MBC) was 22 µM (≈ 7.69 µg/mL) and the MBC ([3]; Pseudomonas aeruginosa, ATCC27853, P. aeruginosa) was > 696 µM. For the same compound, the MBC ([4]; Staphylococcus aureus, ATCC25923, S. aureus) was < 0.68 µM, the MBC [5] was 11 µM (≈ 3.84 µg/mL) and the MBC ([6]; Salmonella, TYPHI) was 5.5 µM (≈ 1.92 µg/mL).
`CC(=O)Oc1ccccc1C(=O)O` [Natural aspirin, aspirin, reference compound] showed an inhibition at 100 µg/mL (HT29 cells; 100 μg/ml) of 0%, an inhibition at 200 µg/mL (HT29 cells; 200 μg/ml) of 3% and an inhibition at 500 µg/mL (HT29 cells; 500 μg/ml) of 6%. It also gave an inhibition at 1000 µg/mL (HT29 cells; 1000 μg/ml) of 48%.
`CC(C)C[C@H](NC(=O)[C@H](CCCCN)NC(=O)[C@H](C)NC(=O)[C@H](CC(C)C)NC(=O)[C@H](CCCCN)NC(=O)[C@H](CCCCN)NC(=O)[C@H](C)NC(=O)[C@H](CC(C)C)NC(=O)[C@H](CCCCN)NC(=O)[C@H](C)NC(=O)[C@H](CC(C)C)NC(=O)[C@@H](N)CCCCN)C(=O)N[C@@H](C)C(=O)N[C@@H](CCCCN)C(=O)O` [SEQ ID NO: 24, reference compound] was tested, and the MBC ([1]; E. faecalis) was >110 µM, the MBC ([2]; E. coli, read-out: MBC) was 55 µM (≈ 83.8 µg/mL) and the MBC ([3]; P. aeruginosa) was 27.5 µM (≈ 41.9 µg/mL). For the same compound, the MBC ([4]; S. aureus) was >110 µM, the MBC [5] was 110 µM (≈ 168 µg/mL) and the MBC ([6]; S. typhi-Ty2) was 27.5 µM (≈ 41.9 µg/mL).
For “KLAKLAKKLAKLAKGKRKKKGKLGKKRDP [SEQ ID NO: 44]”, the MBC ([1]; E. faecalis) was >110 µM, the MBC ([2]; E. coli, read-out: MBC) was 1.7 µM and the MBC ([3]; P. aeruginosa) was >110 µM. The MBC ([4]; S. aureus) was >110 µM, the MBC [5] was 1.27 µM and the MBC ([6]; Ty2 (WHO)) was 0.64 µM.
In the case of “KLAKLAKKLAKLAKKHLKKHLKKHLK [SEQ ID NO: 45]”, the MBC ([1]; E. faecalis) is reported as >680 µM, the MBC ([2]; E. coli, read-out: MBC) is reported as 1 µM and the MBC ([3]; P. aeruginosa) is reported as 0.5 µM. The MBC ([4]; S. aureus) was >680 µM, the MBC [5] was 1 µM and the MBC ([6]; Ty2 (WHO)) was 0.66 µM.
With “SEQ ID NO: 22: Peptide containing 12 lysines (K) and SEQ ID NO: 6 (KKKKKKKKKKKKTYYSDTVKGRFTRQKYNKRA; Mus musculis x Rattus norvegicus)” the “luciferase expression RLU” value (CHO cells) was 1.9 10^6/mg of proteins.
In the case of “SEQ ID NO: 23: Peptide containing 12 lysines (K) and SEQ ID NO: 5 (KKKKKKKKKKKKVKRGLKLRQKYNKRAMDY; Mus musculis x Rattus norvegicus)”, the “luciferase expression RLU” value (CHO cells) is reported as 11.5 10^6/mg of proteins and the “increase of luciferase expression compared with SEQ ID NO: 22” value (CHO cells; CHO cells) is reported as 6 times.
For “SEQ ID NO: 40: SEQ ID NO: 10 (1047) plus 13 N-terminal lysines (KKKKKKKKKKKKKVKRGLKLRHVRPRVTRMDV; listed as Homo sapiens)”, the “RLU value relative to peptide SEQ ID NO: 41” value (3T3 cells) was 2.6 times and the “luciferase expression RLU” value (3T3 cells) was 1.9 × 10^6/mg of protein.
In the case of “SEQ ID NO: 41: SEQ ID NO: 28 (HBP3)2) plus 13 N-terminal lysines (KKKKKKKKKKKKKSERKKRRRESRKKRRRES; listed as Homo sapiens)”, the “luciferase expression RLU” value (3T3 cells) is reported as 0.9 × 10^6/mg of protein.
With “SEQ ID NO: 42: SEQ ID NO: 39 (HBP10) plus 13 N-terminal lysines (KKKKKKKKKKKKKSRRARRSPRHLGSG; listed as Homo sapiens)” the “RLU value relative to peptide SEQ ID NO: 41” value (3T3 cells) was 5.5 times and the “luciferase expression RLU” value (3T3 cells) was 5 × 10^6/mg of protein.
In the case of VKRGLKLVKRGLKL [SEQ ID NO: 2], the intracellular cytochemical coloration (cells) is reported as “Faint coloration”, the S-PO internalized (H1299 cells) is reported as 84 pg/10^4 cells and the MBC ([1]; ATCC 29212) is reported as >160 µM. The MBC ([2]; ATCC 25922) was >160* μM, the MBC ([3]; ATCC 27853) was >160 µM and the MBC ([4]; ATCC 25923) was >160 µM. For the same compound, the MBC [5] was >160 µM and the “bactericide / anti-microbial activity” value [7] was “not active”.
